Read-outs that look alike come from different tables or passages of the source.
Columns and labels:
human ChoKα1 = molecular target: T1, human ChoKα1 (Homo sapiens, UniProt P35790); test: Tryptophan fluorescence quenching; type: binding; conditions: mean ± S.D. of at least three independent experiments; 25 °C, enzyme 1 μM; read-out: HsChoKα1 Kd
T1 construct: made in house
Description: All compounds were prepared in 100% DMSO. Their Kds against human ChoKα1 were measured by monitoring the quenching of tryptophan fluorescence. All experiments were performed in a Cary Eclipse spectrofluorometer (Varian) at 25 °C with the enzymes at 1 μM, and concentrations of compounds varying from 0.1 to 5 μM for ChoKα1 in 25 mM Tris, 150 mM NaCl, pH 7.5. Fluorescence emission spectra were recorded in the 300–400 nm range with an excitation wavelength of 280 nm, with slit width of 5 nm. Controls were determined by incubating the enzymes with equivalent amounts of DMSO. As indicated previously, data analysis was performed in Prism (GraphPad software) considering a model with a single binding site (Eq. 1), where F0 is the intrinsic fluorescence of the enzyme in the absence of quencher (Q), F1 is the observed fluorescence at a given quencher concentration, fa is the fractional degree of fluorescence, and Kd is the dissociation constant.

PBL (+Pha) = test: Antiproliferative assay in non-tumoral cells (MTT); type: cell-based; conditions: Homo sapiens, non-tumoral cells stimulated with phytohematoagglutinin, 72 h, mean ± SEM
Description: (§1) Peripheral mononuclear cells (PBMC) from healthy donors were obtained by separation on Lymphoprep (Fresenius KABI Norge AS) gradient. After extensive washing, cells were resuspended (1 × 10^6 cells/mL) in RPMI-1640 with 10% fetal bovine serum and incubated overnight. For cytotoxicity evaluations in proliferating PBL cultures, non-adherent cells were resuspended at 5 × 10^5 cells/mL in growth medium, containing 2.5 μg/mL PHA (Irvine Scientific). Different concentrations of the test compounds were added, and viability was determined 72 h later by the MTT test. For cytotoxicity evaluations in resting PBL cultures, non-adherent cells were resuspended (5 × 10^5 cells/mL) and treated for 72 h with the test compounds, as described above.

PBL (resting) = test: Antiproliferative assay in non-tumoral cells (MTT); type: cell-based; conditions: Homo sapiens, 72 h, mean ± SEM
Description: as §1

Human fibroblasts = test: Antiproliferative assay in non-tumoral cells; type: cell-based; conditions: Fibroblast, mean ± SEM
Excerpt: Human fibroblasts from foreskin were isolated as previously described[58] and maintained in DMEM medium with 10% fetal bovine serum added.

purified human ChoKα1 = purified human ChoKα1 (Homo sapiens, UniProt P35790); test: Determination of human choline kinase α1 activity ([methyl-14C]choline incorporation into phosphocholine); type: biochemical
Description: The effect of the different inhibitors on human choline kinase (ChoK) was assayed in ChoKα1 purified as previously described[32]. In each experiment DMSO-assays were always run in parallel as a control. DMSO in no case exceeded a concentration of 0.1% in order to avoid unspecific ChoK inhibition. ChoK activity was assayed by measuring the rate of incorporation of ^14C from [methyl-^14C]choline into phosphocholine both in the presence or absence of different inhibitor concentrations. Briefly, the final reaction mixture contained 100 mM Tris (pH 8.5), 10 mM MgCl2, and 10 mM ATP, and 20 ng of purified ChoKα1. […] The assay was stopped by immersing the reaction tubes in boiling water for 3 min. Aliquots of the reaction mixture were applied to the origin of Silica Gel plates in the presence of phosphocholine (0.1 mg) and choline (0.1 mg) as carriers. The chromatography was developed in methanol/0.6% NaCl/28% NH4OH in water (50:50:5, v/v/v) as solvent. Phosphocholine was visualized under exposure to iodine vapor and the corresponding spot was scraped and transferred to scintillation vials for measurement of radioactivity by a Beckman 6000-TA (Madrid, Spain) liquid-scintillation counter. At least three experiments were performed in all assays.

HT-29 cells = test: Antiproliferative MTT assay; type: cell-based; conditions: Homo sapiens, 72 h, mean ± SEM
Description: (§2) Human T-cell leukemia (Jurkat), human B-cell leukemia (RS 4,11) and human promyelocytic leukemia (HL-60) cells were grown in RPMI-1640 medium (Gibco, Milan, Italy). Breast adenocarcinoma (MCF-7 and MDA-MB-231), human non-small cell lung carcinoma (A549), human cervix carcinoma (HeLa), human prostate adenocarcinoma (PC-3), and human colon adenocarcinoma (HT-29) cells were grown in DMEM medium (Gibco, Milan, Italy). Both media were supplemented with 115 units/mL of penicillin G (Gibco, Milan, Italy), 115 μg/mL of streptomycin (Invitrogen, Milan, Italy) and 10% fetal bovine serum (Invitrogen, Milan, Italy). Stock solutions (10 mM) of the different compounds were obtained by dissolving them in DMSO. Individual wells of 96-well tissue-culture microtiter plates were inoculated with 100 μL of complete medium containing 8 × 10^3 cells. The plates were incubated at 37 °C in a humidified 5% CO2 incubator for 18 h prior to the experiments. After medium removal, 100 μL of fresh medium containing the test compound at different concentrations was added to each well and incubated at 37 °C for 72 h. The percentage of DMSO in the medium in no case exceeded 0.25%.

HeLa cells = test: Antiproliferative MTT assay; type: cell-based; conditions: Homo sapiens, 72 h, mean ± SEM
Description: as §2

A549 cells = test: Antiproliferative MTT assay; type: cell-based; conditions: Homo sapiens, 72 h, mean ± SEM
Description: as §2

Jurkat cells = test: Antiproliferative MTT assay; type: cell-based; conditions: Homo sapiens, 72 h, mean ± SEM
Description: as §2

RS4,11 cells = test: Antiproliferative MTT assay; type: cell-based; conditions: Homo sapiens, 72 h, mean ± SEM
Description: as §2

HL-60 cells = test: Antiproliferative MTT assay; type: cell-based; conditions: Homo sapiens, 72 h, mean ± SEM
Description: as §2

MDA-MB-231 cells = test: Antiproliferative MTT assay; type: cell-based; conditions: Homo sapiens, 72 h, mean ± SEM
Description: as §2

PC-3 cells = test: Antiproliferative MTT assay; type: cell-based; conditions: Homo sapiens, 72 h, mean ± SEM
Description: as §2

MCF-7 cells = test: Antiproliferative MTT assay; type: cell-based; conditions: Homo sapiens, MCF7, 72 h, mean ± SEM
Description: as §2

[1] = tested on: panel of nine different human tumor-cell lines; test: Antiproliferative activity against the panel of nine human tumor-cell lines; type: cell-based; conditions: for GI50: Homo sapiens, range or bound over all tested cell lines, read-out: GI50 across the tumor-cell line panel
Description: as §2

HUVEC = test: Antiproliferative assay in non-tumoral cells; type: cell-based; conditions: Homo sapiens, mean ± SEM
Description: Human Umbilical Vein Endothelial cells (HUVEC), were prepared from human umbilical-cord veins, as previously described. The adherent cells were maintained in M200 medium added by LSGS (low serum growth supplement), containing FBS, hydrocortisone, hEGF, bFGF, heparin, gentamycin/amphotericin (Life Technologies, Monza, Italy). Once confluent, the cells were detached by trypsin–EDTA solution and used in experiments from the first to sixth passages.

[2] = mean ± SEM, three independent experiments, read-out: IC50 ChoKα1 purified

Chain of purified human ChoKα1 (P35790 whole entry): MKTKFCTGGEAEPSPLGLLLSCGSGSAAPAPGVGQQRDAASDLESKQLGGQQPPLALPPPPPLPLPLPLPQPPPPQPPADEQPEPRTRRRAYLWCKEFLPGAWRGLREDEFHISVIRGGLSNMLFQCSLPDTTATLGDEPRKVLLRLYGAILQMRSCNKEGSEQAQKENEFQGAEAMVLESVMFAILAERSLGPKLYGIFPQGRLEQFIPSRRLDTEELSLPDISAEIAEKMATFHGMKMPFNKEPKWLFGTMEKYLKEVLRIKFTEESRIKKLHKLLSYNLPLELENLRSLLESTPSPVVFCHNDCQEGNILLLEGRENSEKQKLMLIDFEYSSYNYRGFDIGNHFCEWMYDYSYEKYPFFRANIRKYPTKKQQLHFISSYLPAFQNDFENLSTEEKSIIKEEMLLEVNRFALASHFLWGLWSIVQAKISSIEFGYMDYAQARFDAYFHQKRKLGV
T1 sequence (P35790 whole entry): as above

Kd (human ChoKα1) [nM]	IC50 (purified human ChoKα1; [2]) [nM]	GI50 (HT-29 cells) [nM]	GI50 (HeLa cells) [nM]	GI50 (A549 cells) [nM]	GI50 (Jurkat cells) [nM]	GI50 (RS4,11 cells) [nM]	GI50 (HL-60 cells) [nM]	GI50 (MDA-MB-231 cells) [nM]	GI50 (PC-3 cells) [nM]	GI50 (MCF-7 cells) [nM]	Structure (SMILES)	GI50 (PBL (+Pha)) [nM]	GI50 (PBL (resting)) [nM]	GI50 (Human fibroblasts) [nM]	GI50 [1] [nM]	IC50 (purified human ChoKα1) [nM]	Antiproliferative activity in all cell lines (in words) [1]	GI50 (HUVEC) [nM]
110 ± 10	–	–	–	–	–	–	–	–	–	–	CN(C)c1cc[n+](Cc2ccc(CCCCc3ccc(C[n+]4ccc(N(C)c5ccc(Cl)cc5)cc4)cc3)cc2)cc1 [Compound 4, reference compound]	–	–	–	–	–	–	–
–	9560 ± 1450	4300 ± 420	82 ± 41	2300 ± 1100	68 ± 16	1120 ± 220	42 ± 5	90 ± 20	4500 ± 1100	170 ± 32	c1cc(OCCOc2ccc(C[n+]3ccc(N4CCCC4)cc3)cc2)ccc1C[n+]1ccc(N2CCCC2)cc1 [Compound 10b, 1,1′-(((ethane-1,2-diylbis(oxy))bis(4,1-phenylene))bis(methylene))bis(4-(pyrrolidin-1-yl)pyridinium) bromide]	1880 ± 710	34800 ± 15600	30500 ± 9600	42 to 4500	–	–	–
–	1630 ± 140	4300 ± 1100	5600 ± 250	4900 ± 700	7300 ± 500	2700 ± 130	2100 ± 600	2200 ± 270	3100 ± 700	3500 ± 720	CN(c1ccc(Cl)cc1)c1cc[n+](Cc2ccc(OCCOc3ccc(C[n+]4ccc(N(C)c5ccc(Cl)cc5)cc4)cc3)cc2)cc1 [Compound 10c, 1,1′-(((ethane-1,2-diylbis(oxy))bis(4,1-phenylene))bis(methylene))bis(4-((4-chlorophenyl)(methyl)amino)pyridinium) bromide]	–	–	–	2100 to 7300	–	–	–
295 ± 127	6850 ± 810	120 ± 17	150 ± 31	210 ± 60	60 ± 2	240 ± 50	63 ± 13	1 ± 1	470 ± 120	170 ± 65	CN(c1ccccc1)c1cc[n+](Cc2ccc(OCCOc3ccc(C[n+]4ccc(N(C)c5ccccc5)c5ccccc54)cc3)cc2)c2ccccc12 [Compound 10f, 1,1′-(((ethane-1,2-diylbis(oxy))bis(4,1-phenylene))bis(methylene))bis(4-(methyl(phenyl)amino)quinolinium) bromide]	100 ± 30	1400 ± 600	9800 ± 2500	–	–	–	–
–	2790 ± 170	350 ± 70	320 ± 62	180 ± 80	310 ± 70	26 ± 6	920 ± 60	230 ± 40	850 ± 320	320 ± 40	CN(c1ccccc1)c1cc[n+](Cc2ccc(OCCOc3ccc(C[n+]4ccc(N(C)c5ccccc5)c5ccc(Cl)cc54)cc3)cc2)c2cc(Cl)ccc12 [Compound 10h, 1,1′-(((ethane-1,2-diylbis(oxy))bis(4,1-phenylene))bis(methylene))bis(7-chloro-4-(methyl(phenyl)amino)quinolinium) bromide]	320 ± 30	1000 ± 420	3700 ± 430	–	–	–	16000 ± 6600
–	16200 ± 440	1000 ± 150	1500 ± 730	290 ± 100	760 ± 260	500 ± 90	870 ± 280	150 ± 50	720 ± 90	660 ± 70	CN(c1ccc(Cl)cc1)c1cc[n+](Cc2ccc(OCCOc3ccc(C[n+]4ccc(N(C)c5ccc(Cl)cc5)c5ccc(Cl)cc54)cc3)cc2)c2cc(Cl)ccc12 [Compound 10i, 1,1′-(((ethane-1,2-diylbis(oxy))bis(4,1-phenylene))bis(methylene))bis(7-chloro-4-((4-chlorophenyl)(methyl)amino)quinolinium) bromide]	–	–	–	–	–	–	–
–	1660 ± 90	150 ± 80	170 ± 84	300 ± 68	110 ± 26	160 ± 12	420 ± 220	10 ± 5	90 ± 40	110 ± 47	c1ccc2c(c1)c(N1CCCCCC1)cc[n+]2Cc1ccc(OCCOc2ccc(C[n+]3ccc(N4CCCCCC4)c4ccccc43)cc2)cc1 [Compound 10j, 1,1′-(((ethane-1,2-diylbis(oxy))bis(4,1-phenylene))bis(methylene))bis(4-(azepan-1-yl)quinolinium) bromide]	95 ± 21	2000 ± 240	14300 ± 1200	–	–	–	–
241 ± 30	2020 ± 80	270 ± 50	260 ± 74	520 ± 20	72 ± 13	36 ± 8	180 ± 60	61 ± 3	110 ± 28	280 ± 90	Clc1ccc2c(N3CCCCCC3)cc[n+](Cc3ccc(OCCOc4ccc(C[n+]5ccc(N6CCCCCC6)c6ccc(Cl)cc65)cc4)cc3)c2c1 [Compound 10k, 1,1′-(((ethane-1,2-diylbis(oxy))bis(4,1-phenylene))bis(methylene))bis(4-(azepan-1-yl)-7-chloroquinolinium) bromide]	34 ± 7	2100 ± 800	3200 ± 860	–	–	–	–

Structure (SMILES)	Kd (human ChoKα1) [nM]	IC50 (purified human ChoKα1; [2]) [nM]	GI50 (HT-29 cells) [nM]	GI50 (HeLa cells) [nM]	GI50 (A549 cells) [nM]	GI50 (Jurkat cells) [nM]	GI50 (RS4,11 cells) [nM]	GI50 (HL-60 cells) [nM]	GI50 (MDA-MB-231 cells) [nM]	GI50 (PC-3 cells) [nM]	GI50 (MCF-7 cells) [nM]	GI50 (PBL (+Pha)) [nM]	GI50 (PBL (resting)) [nM]	GI50 (Human fibroblasts) [nM]	GI50 [1] [nM]	IC50 (purified human ChoKα1) [nM]	Antiproliferative activity in all cell lines (in words) [1]	GI50 (HUVEC) [nM]
[Br-].[Br-].c1cc(OCCOc2ccc(C[N+]34CCC(CC3)CC4)cc2)ccc1C[N+]12CCC(CC1)CC2 [Compound 10d, 1,1′-(((ethane-1,2-diylbis(oxy))bis(4,1-phenylene))bis(methylene))bis(quinuclidinium) bromide]	–	–	> 100000	16900 ± 2500	61300 ± 16700	> 100000	37500 ± 4200	84100 ± 7400	74300 ± 2600	94300 ± 12400	91400 ± 7600	–	–	–	> 10000	37500 ± 4450	total loss of activity	–
OC1C[N+]2(Cc3ccc(OCCOc4ccc(C[N+]56CCC(CC5)C(O)C6)cc4)cc3)CCC1CC2.[Br-].[Br-] (centres unmarked) [Compound 10e, 1,1′-(((ethane-1,2-diylbis(oxy))bis(4,1-phenylene))bis(methylene))bis(3-hydroxyquinuclidinium) bromide]	–	–	94000 ± 4200	> 100000	> 100000	> 100000	66000 ± 6600	> 100000	63200 ± 3900	48000 ± 1100	50900 ± 11700	–	–	–	> 10000	9510 ± 1140	total loss of activity	–
C[N+]1(C)CCOC(O)(c2ccc(-c3ccc(C4(O)C[N+](C)(C)CCO4)cc3)cc2)C1 (centres unmarked) [HC-3, reference compound]	180 ± 30	–	–	–	–	–	–	–	–	–	–	–	–	–	–	–	–	–
